Experimental findings from ChEMBL document CHEMBL3045998, “QSAR analysis of 2-benzoxazolyl hydrazone derivatives for anticancer activity and its possible target prediction” (Med Chem Res, 2012) are described below.

pIC50: −log10 of the molar value.

Holding throughout (type): functional, cell-based
One test has as its system HeLa. Briefly: Cytotoxicity against Homo sapiens (human) HeLa cells assessed as growth inhibition.
For the next test, the system named is CCRF-CEM. Briefly: Cytotoxicity against Homo sapiens (human) CCRF-CEM cells assessed as growth inhibition.
A short description of test [1]: Cytotoxicity against Homo sapiens (human) Burkitt lymphoma cells assessed as growth inhibition. The note with it: for pIC50: read-out: IC50; for IC50: read-out: pIC50 (converted).

In general, pIC50 refers to −log10 of the IC50, conventionally taken in molar units. Take `C/C(=N\Nc1nc2ccccc2o1)c1nccnc1C`: the negative logarithm of the IC50 (pIC50) in the test with HeLa is 6.73; in the test with CCRF-CEM it was 6.89; in test [1], 6.05. The IC50 in test [1] was 891 nM.

Turning to `C/C(=N\Nc1nc2ccccc2o1)c1cnc(C)cn1`, in test [1], the pIC50 was 6.82 and the IC50 is 151 nM.

Turning to `CC/C(=N\Nc1nc2ccccc2o1)c1ccccn1`, the figures for the negative-log IC50 (pIC50) (in the test with HeLa; in test [1]) were 7.29 and 8.70, respectively. In addition, the IC50 in test [1] was 2 nM.

On to `C/C(=N\Nc1nc2ccccc2o1)c1cccc[n+]1[O-]`, for which, in test [1], the negative logarithm of the IC50 (pIC50) is 7.57 and the IC50 is 26.9 nM.

`c1ccc(C(=NNc2nc3ccccc3o2)c2ccccn2)nc1`: in test [1], the pIC50 was 7.92 and the IC50 is 12 nM.

As for `c1ccc(/C(=N/Nc2nc3ccccc3o2)C2CC2)nc1`, in test [1], the negative logarithm of the IC50 (pIC50) is 6.73 and the IC50 is 186 nM.

Consider `C/C(=N\Nc1nc2ccccc2o1)c1ccc2ccccc2n1`, for which, in test [1], the pIC50 is 5.26 and the IC50 was 5500 nM.

As to `C(=N\Nc1nc2ccccc2o1)/c1ccccn1`, in test [1], the pIC50 is 8.30 and the IC50 is 5.01 nM.

Consider `C/C(=N\Nc1nc2ccccc2o1)c1ccncn1`, for which, in test [1], the pIC50 was 6.84 and the IC50 was 145 nM.

Regarding `C/C(=N\N(C)c1nc2ccccc2o1)c1ccccn1`, in test [1], the pIC50 was under 4.30.

For the compound `C/C(=N\Nc1nc2ccccc2o1)c1ncccn1`, in test [1], the negative logarithm of the IC50 (pIC50) was 7.52 and the IC50 was 30.2 nM.

For `C/C(=N\Nc1nc2ccccc2o1)c1nccc2ccccc12`, in test [1], the negative-log IC50 (pIC50) is 6.70 and the IC50 is 200 nM.

On to `CC(C)(C)/C(=N\Nc1nc2ccccc2o1)c1ccccn1`, for which the pIC50 in test [1] is under 5.00.

Take `C/C(=N\Nc1nc2ccccc2o1)c1ccc(C)nn1`: in test [1], the pIC50 is 5.20 and the IC50 is 6310 nM.

Turning to `C/C(=N\Nc1nc2ccccc2o1)c1cccnc1`, the pIC50 in test [1] is under 4.00.

As to `CCC/C(=N\Nc1nc2ccccc2o1)c1ccccn1`, in test [1], the pIC50 is 8.22 and the IC50 is 6.03 nM.

With `c1ccc(C/C(=N\Nc2nc3ccccc3o2)c2ccccn2)cc1`, the pIC50 in test [1] was under 5.00.

For `C/C(=N\Nc1nc2ccccc2o1)c1cc(C)ncn1`, in test [1], the negative logarithm of the IC50 (pIC50) was 7.38 and the IC50 was 41.7 nM.

On to `CC(C)/C(=N\Nc1nc2ccccc2o1)c1ccccn1`, for which, in test [1], the pIC50 was 7.85 and the IC50 was 14.1 nM.

With `C/C(=N\Nc1nc2ccccc2o1)c1ccccn1`, in test [1], the pIC50 is 8.05 and the IC50 was 8.91 nM.

On to `C/C(=N\Nc1nc2ccccc2o1)c1cc2ccccc2cn1`, for which, in test [1], the negative-log IC50 (pIC50) was 7.52 and the IC50 is 30.2 nM.

Consider `c1ccc(/C(=N\Nc2nc3ccccc3o2)c2ccccn2)cc1`, for which, in test [1], the pIC50 was 6.92 and the IC50 was 120 nM.

For `C/C(=N\Nc1nc2ccccc2o1)c1cccnn1`, in test [1], the negative logarithm of the IC50 (pIC50) was 5.89 and the IC50 is 1290 nM.
